Broadly, the CC50 is the concentration that lowers cell viability or growth by half. What is called IC50 is the midpoint of a concentration-inhibition curve.

Drawing on publication PMC8583042, “New Hybrid Compounds Combining Fragments of Usnic Acid and Thioether Are Inhibitors of Human Enzymes TDP1, TDP2 and PARP1” (International Journal of Molecular Sciences, 2021), this text covers CC50, IC50 and remaining activity for five compounds.

Data set [1] is described as follows: Colorimetric cytotoxicity test, HEK293A PARP1-/-. Particulars: human, PARP1-/- HEK293A cells; PARP1-/- HEK293A cell line; read-out: CC50 of Tpc. Type of data set: cell-based. From the text: In our previous works, we checked the cytotoxic effect of Tpc and the TDP1 inhibitors—monoterpene 3-carene-derived compounds [48, 49] and UA combined with monoterpenoids, measured separately and jointly with Tpc—using a panel of HEK293FT and HEK293A Tdp1 knockout isogenic clones. […] The data on the HEK293FT mutants were of low reproducibility, which is why we decided to change the basic cell line to HEK293A [49]. In this work, we created new PARP1-/- HEK293A cells using the CRISPR–Cas9 approach (Figure S27). […] We checked the intrinsic cytotoxicity of the leader compound (10a) on the HEK293 wild type and TDP1-/- and PARP1-/- cell lines using a colorimetric test (Figure 6). […] There was no difference between the WT and mutant cells.
Cytotoxicity of the compounds was examined against human cell lines HEK293A (human embryonic kidney)—WT, TDP1 deficient (Tdp1-/-), PARP1 deficient (PARP1-/-), and HeLa (cervical cancer) using an EZ4U colorimetric test (Biomedica, Vienna, Austria). […] After the formation of a 30–50% monolayer, the tested compounds were added to the medium, and the cell culture was monitored for 3 days. […] The compound concentration that caused 50% cell growth inhibition was determined using OriginPro 8.6.0 software (OriginLab, Northampton, MA, USA). […]

Data set [2] deals with HeLa cells. As to the kind of experiment: Cytotoxicity of the combination of 10a and topotecan on HeLa cells. The conditions noted are these: Homo sapiens; HeLa, Tpc titrated with fixed 5 μM 10a; read-out: CC50 of Tpc with 10a. The class given is cell-based, human. The source says: TDP1 is able to cleave the TOP1–DNA complex, thus preventing the action of Tpc and decreasing the efficiency of this clinically used drug. The inhibition of TDP1 activity can increase the efficiency of Tpc. Next, we checked the cytotoxic effect of the combination of Tpc and examined the TDP1 inhibitors compared to Tpc alone on HeLa cells and HEK293 cells.
We observed the suppressed cell growth in the joint presence of the TDP1 inhibitor and Tpc on HeLa cells compared to Tpc alone (Figure 5). We observed the synergistic effect both when we titrated 10a with addition of fixed Tpc (1 μM or 2 μM) and vice versa when we titrated Tpc with addition of fixed 10a (5 μM). […] The CC50 value of Tpc decreased from 2 μM (only Tpc) to 0.7 μM (Tpc with 5 μM 10a).
Cytotoxicity of the compounds was examined against human cell lines HEK293A (human embryonic kidney)—WT, TDP1 deficient (Tdp1-/-), PARP1 deficient (PARP1-/-), and HeLa (cervical cancer) using an EZ4U colorimetric test (Biomedica, Vienna, Austria). The HEK293A cell line was obtained from Thermo Fisher Scientific (Waltham, MA, USA), and the HeLa cell line was obtained from the Russian Cell Culture Collection (RCCC) Institute of Cytology RAS, St. Petersburg, Russia. The cells were grown in DMEM/F12 medium (Gibco, Thermo Fisher Scientific, Waltham, MA, USA), with 1x GlutaMAX (Gibco, Thermo Fisher Scientific, Waltham, MA, USA), 50 IU/mL penicillin, 50 μg/mL streptomycin (MP Biomedicals), and in the presence of 10% fetal bovine serum (Biolot, Saint-Petersburg, Russia) in a 5% CO2 atmosphere. Cells were grown in the presence of 1% DMSO in the control wells. After the formation of a 30–50% monolayer, the tested compounds were added to the medium, and the cell culture was monitored for 3 days. The values were normalized to their own control in each case. At least three independent experiments were carried out. […] The compound concentration that caused 50% cell growth inhibition was determined using OriginPro 8.6.0 software (OriginLab, Northampton, MA, USA). […]

The test system of data set [3] is HeLa cells. As to the kind of experiment: EZ4U colorimetric cytotoxicity test, HeLa. Type of data set: cell-based, human. Particulars: Homo sapiens; HeLa, only Tpc. From the text: (§1) The low intrinsic cytotoxicity of the additional drug component in the clinically used anticancer cocktails with traditional drugs is very important for treatment. This approach in chemotherapy can reduce the potential resulting toxic load on the body in the case of a combined action of these inhibitors on the activity of several targets. […] The effects of the tested compounds on cell survival are shown on Figure 4 and the CC50 values for three cell lines are shown in Table 1. The intrinsic cytotoxicity of a number of the studied compounds is quite high, namely, they have close IC50 values against the TDP1 and CC50 values on one or several studied cell lines. Most of the compounds generally were more toxic for the HEK293FT and HeLa cell lines than for the HEK293A cell line (Table 1 and Figure 4). The cytotoxicity of the three leader compounds, 7g, 10a, and 7h, was quite high. […] Compound 10b was one of the least toxic among the ten tested compounds.
(§2) Cytotoxicity of the compounds was examined against human cell lines HEK293A (human embryonic kidney)—WT, TDP1 deficient (Tdp1-/-), PARP1 deficient (PARP1-/-), and HeLa (cervical cancer) using an EZ4U colorimetric test (Biomedica, Vienna, Austria). The HEK293A cell line was obtained from Thermo Fisher Scientific (Waltham, MA, USA), and the HeLa cell line was obtained from the Russian Cell Culture Collection (RCCC) Institute of Cytology RAS, St. Petersburg, Russia. The cells were grown in DMEM/F12 medium (Gibco, Thermo Fisher Scientific, Waltham, MA, USA), with 1x GlutaMAX (Gibco, Thermo Fisher Scientific, Waltham, MA, USA), 50 IU/mL penicillin, 50 μg/mL streptomycin (MP Biomedicals), and in the presence of 10% fetal bovine serum (Biolot, Saint-Petersburg, Russia) in a 5% CO2 atmosphere. Cells were grown in the presence of 1% DMSO in the control wells. After the formation of a 30–50% monolayer, the tested compounds were added to the medium, and the cell culture was monitored for 3 days. The values were normalized to their own control in each case. At least three independent experiments were carried out. The 50% cytotoxic concentration (CC50) was defined as the compound concentration that reduced the cell viability by 50% when compared to the untreated controls. The compound concentration that caused 50% cell growth inhibition was determined using OriginPro 8.6.0 software (OriginLab, Northampton, MA, USA). The measurements were carried out in three independent experiments.

Data set [4] in a line: EZ4U colorimetric cytotoxicity test, HEK293A. Type of data set: cell-based. Particulars: human.
From the text: as §1, §2

Data set [5] relates to TDP1. Details: method as in PMID 27933897, PMID 30076000, PMID 31619021, doi:10.1134/S1068162017010125, PMID 30396105. The conditions noted are these: cited from earlier work.
The target in data set [6] is T1, PARP1 (Homo sapiens, UniProt P09874).
T1 construct: made in house; host or cells: E. coli
Briefly: PARP1 autopoly(ADP-ribosyl)ation assay with [32P]-NAD+. The class given is biochemical. The conditions noted are these: 0.5 mM concentration of the compound; read-out: PARP1 residual activity. On the procedure: The next step of our study was to test the inhibitors for their ability to inhibit PARP1 and PARP2. UA and the 14 synthesized compounds were tested for the suppression of the ability of PARP1 and PARP2 to include a radioactive label into the acid-insoluble reaction product, poly(ADP-ribose) (PAR). […] The best effect we observed was for 9; the residual activity was 40 ± 5% under the reaction conditions (0.5 mM concentration of the compound), indicated in Materials and Methods.
(§3) Human recombinant tyrosyl-DNA phosphodiesterase 1 (TDP1) and human recombinant poly(ADP-ribose)-polymerase1 (PARP1) were expressed in the E. coli system and purified as described.
The radioactive labeled [32P]-NAD+ was synthesized from α–[32P]-ATP according to [55]. The reaction of autopoly(ADP-ribosyl)ation was carried out as follows: for PARP1, 50 mM Tris-HCl, pH 8.0, 10 mM MgCl2, 150 mM NaCl, and 7 mM β-mercaptoethanol, as well as activated DNA 2 oe/mL, 0.3 mM [^32P]-NAD+ at 37 °C. The reaction was initiated by adding PARP1 to 200 nM and the reaction mixtures were incubated for 2 min. For PARP2: 50 mM Tris-HCl, pH 8.0, 3 mM spermin, 150 mM NaCl, and 7 mM β-mercaptoethanol, as well as activated DNA 2 oe/mL, 0.6 mM [^32P] NAD+ at 37 °C. […] The incorporation of radioactivity into the product was calculated using a Typhoon FLA 9500 scanner (GE Healthcare, Chicago, IL, USA). […]

The nature of data set [7]: Colorimetric cytotoxicity test, HEK293FT. The class given is cell-based. Particulars: human, HEK293FT cells, intrinsic cytotoxicity.
From the text: as §1, §2

Data set [8] deals with T2, TDP1 (Homo sapiens, UniProt Q9NUW8).
T2 construct: made in house; host or cells: E. coli
As to the kind of experiment: Real-time fluorescence assay of TDP1 activity. The class given is biochemical. Particulars: real-time fluorescent assay, 1.5 nM TDP1, 50 nM oligonucleotide; read-out: IC50 (TDP1).
From the text: We tested UA and all 14 newly synthesized UA derivatives for their TDP1 inhibitory properties by measuring their IC50 values using a real-time fluorescent assay. […] Compounds 10a,b are sulfoxide analogs of 7g,h.
as §3
The biosensor (5′-[FAM] AAC GTC AGGGTC TTC C [BHQ]-3′) was synthesized in the Laboratory of Nucleic Acid Chemistry at the Institute of Chemical Biology and Fundamental Medicine (Novosibirsk, Russia) and was used for TDP1 enzyme activity real-time fluorescence detection. The reaction mixture (200 μL) contained a TDP1 reaction buffer (50 mM Tris-HCl, pH 8.0, 50 mM NaCl, and 7 mM β-mercaptoethanol), 50 nM oligonucleotide, varied concentrations of the tested compounds, and purified TDP1 in a final concentration 1.5 nM. The reaction mixtures were incubated at a constant temperature of 26 °C in a POLARstar OPTIMA fluorimeter (BMG LABTECH, GmbH, Ortenberg, Germany). Fluorescence intensity was measured (Ex485/Em520 nm) every 1 min for 10 min. The average values of the half maximal inhibitory concentration (IC50) were determined using an eleven-point concentration response curve and calculated using MARS Data Analysis 2.0 (BMG LABTECH). The 50% inhibitory concentration (IC50) was defined as the concentration of the compound that inhibited 50% of the enzyme activity when compared to the untreated controls. At least three independent experiments were carried out to obtain the IC50 values. To determine the kinetic parameters of the TDP1 enzymatic reaction, the apparent maximum rate of enzymatic reaction (Vmax), Michaelis constant (KM), possible inhibition mechanism, and steady-state kinetic experiments were carried out at 5 fixed concentrations of the substrate, with variation in the inhibitor concentrations. The standard reaction mixtures (200 μL) contained reaction buffer components; 50 nM, 100 nM, 200 nM, 500 nM, or 1000 nM substrate; an inhibitor; and 1.5 nM recombinant human TDP1. The initial kinetic curves were obtained in three independent experiments and statistically processed in OriginPro 8.6.0 (OriginLab, Northampton, MA, USA).

Data set [9] can be described thus: EZ4U colorimetric cytotoxicity test, HeLa. Type of data set: cell-based, human. The conditions noted are these: human, HeLa cells; intrinsic cytotoxicity, compound alone, 3 days.
From the text: as §1, §2

T1 sequence (P09874 whole entry): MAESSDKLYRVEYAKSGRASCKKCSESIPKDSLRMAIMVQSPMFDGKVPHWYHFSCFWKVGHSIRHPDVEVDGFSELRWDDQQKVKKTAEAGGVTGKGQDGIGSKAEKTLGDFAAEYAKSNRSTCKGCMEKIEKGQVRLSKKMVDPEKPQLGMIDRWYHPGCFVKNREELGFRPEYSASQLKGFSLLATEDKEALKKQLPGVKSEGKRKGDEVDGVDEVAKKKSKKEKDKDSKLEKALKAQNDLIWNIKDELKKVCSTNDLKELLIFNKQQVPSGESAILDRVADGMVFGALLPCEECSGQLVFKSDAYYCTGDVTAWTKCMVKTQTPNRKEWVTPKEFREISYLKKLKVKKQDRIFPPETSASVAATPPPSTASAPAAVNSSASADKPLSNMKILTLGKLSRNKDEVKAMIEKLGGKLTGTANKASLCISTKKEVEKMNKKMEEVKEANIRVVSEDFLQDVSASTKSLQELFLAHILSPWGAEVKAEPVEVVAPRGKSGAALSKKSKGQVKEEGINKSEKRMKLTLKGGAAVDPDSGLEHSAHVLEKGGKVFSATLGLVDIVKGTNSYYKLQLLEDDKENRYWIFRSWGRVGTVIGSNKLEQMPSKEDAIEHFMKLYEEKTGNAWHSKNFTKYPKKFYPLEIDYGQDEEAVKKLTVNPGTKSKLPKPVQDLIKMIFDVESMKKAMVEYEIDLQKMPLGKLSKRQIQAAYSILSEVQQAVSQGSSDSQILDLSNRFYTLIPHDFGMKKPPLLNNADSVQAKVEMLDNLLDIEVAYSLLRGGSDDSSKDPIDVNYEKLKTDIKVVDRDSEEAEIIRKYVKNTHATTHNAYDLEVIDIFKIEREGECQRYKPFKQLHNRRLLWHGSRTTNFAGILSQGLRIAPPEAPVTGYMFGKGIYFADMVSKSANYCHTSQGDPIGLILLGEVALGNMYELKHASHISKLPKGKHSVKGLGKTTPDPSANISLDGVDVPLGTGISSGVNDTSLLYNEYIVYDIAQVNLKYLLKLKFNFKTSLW
T2 sequence (Q9NUW8 whole entry): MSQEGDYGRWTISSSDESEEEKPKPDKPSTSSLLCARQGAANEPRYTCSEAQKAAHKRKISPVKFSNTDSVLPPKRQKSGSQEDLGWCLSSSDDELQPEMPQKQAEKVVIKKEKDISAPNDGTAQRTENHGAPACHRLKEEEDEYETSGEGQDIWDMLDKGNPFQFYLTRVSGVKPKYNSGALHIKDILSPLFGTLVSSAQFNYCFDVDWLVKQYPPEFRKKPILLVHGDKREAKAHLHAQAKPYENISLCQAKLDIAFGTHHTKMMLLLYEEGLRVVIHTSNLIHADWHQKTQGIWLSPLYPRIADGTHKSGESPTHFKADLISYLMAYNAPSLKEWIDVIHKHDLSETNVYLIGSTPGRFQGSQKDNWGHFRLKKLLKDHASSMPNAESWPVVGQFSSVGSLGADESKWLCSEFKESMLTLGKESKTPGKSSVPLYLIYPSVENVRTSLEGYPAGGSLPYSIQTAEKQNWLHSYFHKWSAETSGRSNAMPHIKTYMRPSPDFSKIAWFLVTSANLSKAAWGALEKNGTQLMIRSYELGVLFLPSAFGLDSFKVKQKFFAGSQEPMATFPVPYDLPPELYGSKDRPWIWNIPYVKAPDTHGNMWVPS

For the compound `CC[C@@]1(O)C(=O)OCc2c1cc1n(c2=O)Cc2cc3c(CN(C)C)c(O)ccc3nc2-1` [Tpc, topotecan, reference compound], the CC50 at 3 days came out at 50 ± 5 nM in [1] and 27 ± 4 nM in data set [4] (wild-type HEK293A cells, WT HEK293A cells, read-out: CC50 of Tpc). The half-maximal cytotoxic concentration (CC50) in data set [2] worked out at 700 nM; in [3] it was 2000 nM.

In the case of `CC(=O)c1c(O)c(C)c(O)c2c1OC1=CC(=O)/C(=C(/C)NCCCc3cc(C(C)(C)C)c(O)c(C(C)(C)C)c3)C(=O)[C@@]12C` [compound 2], in data set [5], the IC50 is 160 nM.

On to `CC(=O)C1=C(O)C=C2Oc3c4c(c(C)c(O)c3[C@@]2(C)C1=O)O/C(=C\c1ccc(Br)cc1)C4=O` [compound 3], for which the IC50 in [5] was 150 nM.

For `CC(=O)C1=C(O)C=C2Oc3c(C(=O)CSC#N)c(O)c(C)c(O)c3[C@@]2(C)C1=O` [compound 5], the IC50 in data set [5] is 1160 nM.

Take `CC(=O)C1=C(O)C=C2Oc3c(C(=O)CSC(N)=O)c(O)c(C)c(O)c3[C@@]2(C)C1=O` [compound 9, (2R)-4-acetyl-10-[2-(carbamoylsulfanyl)acetyl]-5,11,13-trihydroxy-2,12-dimethyl-8-oxatricyclo[7.4.0.0^2,7]trideca-1(13),4,6,9,11-pentaen-3-one]: in [6], the remaining activity at 500 µM is 40 ± 5%. Moreover, the CC50 at 3 days is 7000 ± 2000 nM in data set [7]; 13000 ± 1000 nM in data set [9]; greater than 50000 nM in [4] (HEK293A cells, intrinsic cytotoxicity, 3 days, read-out: HEK293A CC50). In data set [8], the half-maximal inhibitory concentration (IC50) is 6600 ± 1000 nM.
